How the values were obtained:
Test in all cases: Herbicidal efficacy, % weed control
Type in all cases: in vivo
Cenchrus echinatus = settings: 35 days after administration
Description: (§1) This effectiveness of all treatments can be evaluated according to Colby's equation. In the Colby's equation given below, E is the expected efficacy of combination of Propisochlor and another herbicide, X is the observed efficacy of Propisochlor and Y is the observed efficacy of other herbicide. Observed efficacy values i.e. X and Y are % weed control for Propisochlor and another herbicide. If observed efficacy of combination of Propisochlor and other herbicide is greater than its expected efficacy, then combination is determined to be synergistic. If observed efficacy is equal to or less than expected efficacy, then combination is determined to be non-synergistic.
(§2) Experiments were carried out to evaluate the efficacy of combinations of present invention.
(§3) Herbicidal activity of synergistic mixtures of the combinations of present invention is represented in below tables.

Commelina benghalensis = settings: 35 days after administration
Description: as §1, §2, §3

Brachiaria decumbens = settings: 35 days after administration
Description: as §1, §2, §3

Ipomoea grandifolia = tested on: Ipomoea grandifolia
Description: as §1, §2, §3

Brachiaria plantaginea = settings: 35 days after administration, Table 1
Description: as §1, §2, §3

Spermacoce verticillata = settings: 35 days after administration, Table 2
Description: as §1, §2, §3

Ipomoea hederifolia = settings: 35 days after administration, Table 2
Description: as §1, §2, §3

Eleusine indica = settings: 35 days after administration, Table 2
Description: as §1, §2, §3

CCSC(C)CC1CC(=O)C(/C(CC)=N/OC/C=C/Cl)=C(O)C1 (stereo not drawn) [Clethodim]
% Weed control Cenchrus echinatus (Cenchrus echinatus; 120 g ai/ha, Table 4): 0.0%

CN(C)C(=O)Nc1ccc(Cl)c(Cl)c1 [Diuron]
% Weed control Cenchrus echinatus (Cenchrus echinatus; 1000 g ai/ha, Table 9): 5.0%
% Weed control Cenchrus echinatus (Cenchrus echinatus; 2000 g ai/ha, Table 9): 1.3%
% Weed control Commelina benghalensis (Commelina benghalensis; 500 g ai/ha, Table 8): 0%
% Weed control Brachiaria decumbens (Brachiaria decumbens; 1000 g ai/ha, Table 9): 3.8%
% Weed control Brachiaria decumbens (Brachiaria decumbens; 2000 g ai/ha, Table 9): 12.5%
% Weed control Ipomoea grandifolia (Ipomoea grandifolia; 500 g ai/ha, 21 days after administration, Table 7): 0.0%
% Weed control Ipomoea grandifolia (Ipomoea grandifolia; 1000 g ai/ha, 35 days after administration, Table 9): 0.0%
% Weed control Ipomoea grandifolia (Ipomoea grandifolia; 2000 g ai/ha, 35 days after administration, Table 9): 0.0%

C#CCN1C(=O)COc2cc(F)c(N3C(=O)C4=C(CCCC4)C3=O)cc21 [Flumioxazin]
% Weed control Commelina benghalensis (Commelina benghalensis; 50 g ai/ha, Table 1): 90.25%
% Weed control Brachiaria decumbens (Brachiaria decumbens; 50 g ai/ha, Table 1): 63.75%
% Weed control Brachiaria plantaginea (Brachiaria plantaginea; 50 g ai/ha): 53.75%

COC(=O)[C@@H](C)Oc1ccc(Oc2ncc(C(F)(F)F)cc2Cl)cc1 [Haloxyfop-p-methyl]
% Weed control Brachiaria decumbens (Brachiaria decumbens; 62.1 g ai/ha, Table 3): 11.3%

CN(C)c1nc(=O)n(C2CCCCC2)c(=O)n1C [Hexazinone]
% Weed control Commelina benghalensis (Commelina benghalensis; 125 g ai/ha, Table 6): 45.0%
% Weed control Brachiaria decumbens (Brachiaria decumbens; 125 g ai/ha, Table 6): 11.3%

CCc1cccc(C)c1N(COC(C)C)C(=O)CCl [Propisochlor]
% Weed control Cenchrus echinatus (Cenchrus echinatus; 540 g ai/ha, Table 4): 71.3%
% Weed control Cenchrus echinatus (Cenchrus echinatus; 540 g ai/ha, Table 5): 71.3%
% Weed control Cenchrus echinatus (Cenchrus echinatus; 540 g ai/ha, Table 9): 91.8%
% Weed control Cenchrus echinatus (Cenchrus echinatus; 1080 g ai/ha, Table 4): 88.8%
% Weed control Cenchrus echinatus (Cenchrus echinatus; 1080 g ai/ha, Table 5): 88.8%
% Weed control Commelina benghalensis (Commelina benghalensis; 1080 g ai/ha, Table 6): 90.8%
% Weed control Commelina benghalensis (Commelina benghalensis; 1080 g ai/ha, Table 8): 90.8%
% Weed control Commelina benghalensis (Commelina benghalensis; 1080 g ai/ha, Table 10): 90.8%
% Weed control Commelina benghalensis (Commelina benghalensis; 1200 g ai/ha, Table 1): 92.00%
% Weed control Brachiaria decumbens (Brachiaria decumbens; 540 g ai/ha, Table 9): 68.8%
% Weed control Brachiaria decumbens (Brachiaria decumbens; 1080 g ai/ha, Table 3): 92.0%
% Weed control Brachiaria decumbens (Brachiaria decumbens; 1080 g ai/ha, Table 6): 75.0%
% Weed control Brachiaria decumbens (Brachiaria decumbens; 1200 g ai/ha, Table 1): 85.75%
% Weed control Spermacoce verticillata (Spermacoce verticillata; 525 g ai/ha): 92.75%
% Weed control Spermacoce verticillata (Spermacoce verticillata; 675 g ai/ha): 95.75%
% Weed control Ipomoea hederifolia (Ipomoea hederifolia; 525 g ai/ha): 26.25%
% Weed control Ipomoea hederifolia (Ipomoea hederifolia; 675 g ai/ha): 27%
% Weed control Ipomoea grandifolia (Ipomoea grandifolia; 540 g ai/ha, 21 days after administration, Table 7): 7.5%
% Weed control Ipomoea grandifolia (Ipomoea grandifolia; 540 g ai/ha, 35 days after administration, Table 9): 0.0%
% Weed control Ipomoea grandifolia (Ipomoea grandifolia; 540 g ai/ha, 35 days after administration, Table 11): 53.8%
% Weed control Ipomoea grandifolia (Ipomoea grandifolia; 1080 g ai/ha, 21 days after administration, Table 7): 22.5%
% Weed control Ipomoea grandifolia (Ipomoea grandifolia; 1080 g ai/ha, 35 days after administration, Table 10): 45.0%
% Weed control Ipomoea grandifolia (Ipomoea grandifolia; 1080 g ai/ha, 35 days after administration, Table 11): 55.50%
% Weed control Brachiaria plantaginea (Brachiaria plantaginea; 1200 g ai/ha): 84.50%
% Weed control Eleusine indica (Eleusine indica; 525 g ai/ha): 99.75%
% Weed control Eleusine indica (Eleusine indica; 675 g ai/ha): 100.00%

CCOC(=O)[C@@H](C)Oc1ccc(Oc2cnc3cc(Cl)ccc3n2)cc1 [Quizalafop-p-ethyl]
% Weed control Cenchrus echinatus (Cenchrus echinatus; 87.5 g ai/ha, Table 5): 77.5%

Cc1nn(-c2cc(NS(C)(=O)=O)c(Cl)cc2Cl)c(=O)n1C(F)F [Sulfentrazone]
% Weed control Spermacoce verticillata (Spermacoce verticillata; 75 g ai/ha): 92.25%
% Weed control Ipomoea hederifolia (Ipomoea hederifolia; 75 g ai/ha): 98.00%
% Weed control Eleusine indica (Eleusine indica; 75 g ai/ha): 90.00%

CNC(=O)N(C)c1nnc(C(C)(C)C)s1 [Tebuthiuron]
% Weed control Commelina benghalensis (Commelina benghalensis; 400 g ai/ha, Table 10): 0.0%
% Weed control Ipomoea grandifolia (Ipomoea grandifolia; 400 g ai/ha, 35 days after administration, Table 10): 12.5%

CCCN(CCC)c1c([N+](=O)[O-])cc(C(F)(F)F)cc1[N+](=O)[O-] [Trifluralin]
% Weed control Ipomoea grandifolia (Ipomoea grandifolia; 300 g ai/ha, 35 days after administration, Table 11): 0.0%
